In the supplement of paper PMC10307832:

How the values were obtained:
Assay in all cases: relative viability (nuclei count vs DMSO), 5 days (fraction); higher = more cells survive
[1] = compound: C1=CC=C2C(=C1)N=C(S2)C(C#N)C3=NC(=NC=C3)NCCC4=CN=CC=C4 + O=C(CCCCCCC(=O)Nc1ccccc1)NO [Vorinostat] (partner 1 µM)
In short: (§1)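 For relative viability, nuclei counts in treated wells were divided by those in vehicle wells. Lung cancer cell lines had been pin-tool dosed in 1536-well plates the day after seeding and cultured for 5 days, then fixed and stained in one step (final 0.05% Triton X-100, 1% formaldehyde, 1 ug/ml Hoechst) and imaged at 4×. Doses were one drug alone or a fixed anchor-drug dose plus five library-drug doses (not always all listed) in √10 steps, and values are duplicate-plate medians.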

[2] = compound: C#Cc1cccc(Nc2ncnc3cc(OC)c(OCCCCCCC(=O)NO)cc23)c1 [CUDC-101] + Cc1cc(Nc2cc(N3CCN(C)CC3)nc(Sc3ccc(NC(=O)C4CC4)cc3)n2)n[nH]1 [Tozasertib] (partner 0.1 µM)
In short: as §1

[3] = compound: C1=CC=C2C(=C1)N=C(S2)C(C#N)C3=NC(=NC=C3)NCCC4=CN=CC=C4 + CC(=O)Nc1cccc(-n2c(=O)n(C3CC3)c(=O)c3c(Nc4ccc(I)cc4F)n(C)c(=O)c(C)c32)c1 [Trametinib] (partner 0.02 µM)
In short: as §1

[4] = compound: C1=CC=C2C(=C1)N=C(S2)C(C#N)C3=NC(=NC=C3)NCCC4=CN=CC=C4 + COc1cccc2cc(-c3nc([C@H]4CC[C@H](C(=O)O)CC4)n4ncnc(N)c34)[nH]c12 [OSI-027] (partner 0.5 µM)
In short: as §1

Cell Line	relative viability ([1]; first compound 0.01581 µM)	relative viability ([1]; first compound 0.05 µM)	relative viability ([1]; first compound 0.1581 µM)	relative viability ([1]; first compound 0.5 µM)	relative viability ([2]; first compound 0.01 µM)	relative viability ([2]; first compound 0.03162 µM)	relative viability ([2]; first compound 0.1 µM)	relative viability ([2]; first compound 0.3162 µM)	relative viability ([2]; first compound 1 µM)	relative viability ([3]; first compound 0.01581 µM)	relative viability ([3]; first compound 0.05 µM)	relative viability ([3]; first compound 0.1581 µM)	relative viability ([3]; first compound 0.5 µM)	relative viability ([4]; first compound 0.005 µM)	relative viability ([4]; first compound 0.01581 µM)	relative viability ([4]; first compound 0.05 µM)	relative viability ([4]; first compound 0.1581 µM)	relative viability ([4]; first compound 0.5 µM)	relative viability ([1]; first compound 0.005 µM)	relative viability ([3]; first compound 0.005 µM)
NCI-H23	0.504	0.529	0.804	0.627	0.34	0.315	0.288	0.384	0.574	0.436	0.391	0.406	0.45	0.566	0.552	0.474	0.601	0.614		
HCC-366	0.361	0.385	0.519	0.365	0.127	0.111	0.0975	0.111	0.0886	0.378	0.314	0.404	0.307	0.482	0.961	0.856	1.05	0.672	0.336	0.281
NCI-H2126	0.75	0.701	0.855	0.647	0.892	0.79	0.807	0.867	0.743	0.613	0.559	0.546	0.58	0.739	0.676	0.732	0.705	0.677	0.637	0.536
LU99A	0.529		0.622	0.477	0.273	0.269	0.242	0.277	0.273	0.543		0.661	0.555	0.269	0.278	0.297	0.323	0.3	0.417	0.463
NCI-H650	0.392	0.499	0.488	0.393	0.844	0.733	0.639	0.599	0.369	0.968	0.863	1.04	1.04	0.521		0.544	0.475	0.486	0.389	0.969
LXF-289	0.862	0.811	1	0.729	0.168	0.184	0.219	0.211	0.143	0.726	0.716	0.706	0.577	0.515	0.863	0.797	0.846	0.589	0.688	0.601
CAL-12T	0.873	0.973	0.814	0.725	0.409	0.278	0.318	0.344	0.362	0.327	0.395	0.34	0.384	0.811	0.536	0.525	0.534	0.427	0.572	0.278
SK-MES-1	1.06	0.938	1.32	0.935	0.976	0.945	0.942	0.809	0.502	0.555	0.531	0.604	0.629	0.483	0.659	0.48	0.722	0.558	1.01	0.576
SW 1573	0.82	0.43	0.846	0.618	0.211	0.182	0.173	0.173	0.131	0.587	0.479	0.718	0.499	0.497	0.54		0.923	0.557	0.577	0.615
NCI-H1975	0.743	0.747	0.834	0.571	0.741	0.717	0.843	0.837	0.701	0.362	0.293	0.414	0.329	0.511	0.819	0.613	0.811	0.283	0.712	0.377
NCI-H647	0.553	0.411	0.661	0.605	0.235	0.338	0.266	0.223	0.211	0.515	0.45	0.546	0.451	0.638	0.585	0.491	0.756	0.527	0.427	0.407
NCI-H322M	0.842	0.789	0.9	0.935	0.477	0.476	0.45	0.413	0.339	0.525	0.489	0.569	0.558	0.515	0.463	0.529	0.585	0.685	0.771	0.483
NCI-H1648	0.448		0.622	0.417	0.64		0.636	0.362	0.221	0.486		0.499	0.498	0.238	0.239	0.289	0.26	0.28		
